According to patent US9834542B2, “LXR modulators” (BRISTOL-MYERS SQUIBB COMPANY, priority 2013, dated 2017):

Target: T1, LXRβ (Homo sapiens, UniProt P55055)
T1 construct: Co-transfection expression plasmids, comprising full-length LXRα (pCMX-h LXRα[…] or LXRβ (pCMX-hLXRβ)); expressed in transfected cells; host or cells: CV-1 African Green Monkey Kidney Cells
T1 sequence (P55055 1-460): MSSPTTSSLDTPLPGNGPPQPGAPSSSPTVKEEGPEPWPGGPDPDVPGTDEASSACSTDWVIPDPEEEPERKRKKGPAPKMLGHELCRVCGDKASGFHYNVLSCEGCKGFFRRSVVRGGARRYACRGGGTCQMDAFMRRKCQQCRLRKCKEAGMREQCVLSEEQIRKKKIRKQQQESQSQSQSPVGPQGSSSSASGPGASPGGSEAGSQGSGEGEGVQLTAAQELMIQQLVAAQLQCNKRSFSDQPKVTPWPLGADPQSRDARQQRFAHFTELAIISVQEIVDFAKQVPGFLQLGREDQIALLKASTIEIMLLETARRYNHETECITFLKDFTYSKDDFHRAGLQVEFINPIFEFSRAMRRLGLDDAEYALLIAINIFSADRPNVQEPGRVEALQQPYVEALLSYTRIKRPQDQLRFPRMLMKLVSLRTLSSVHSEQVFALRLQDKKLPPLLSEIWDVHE
T1 sequence (P19793 1-462 partner): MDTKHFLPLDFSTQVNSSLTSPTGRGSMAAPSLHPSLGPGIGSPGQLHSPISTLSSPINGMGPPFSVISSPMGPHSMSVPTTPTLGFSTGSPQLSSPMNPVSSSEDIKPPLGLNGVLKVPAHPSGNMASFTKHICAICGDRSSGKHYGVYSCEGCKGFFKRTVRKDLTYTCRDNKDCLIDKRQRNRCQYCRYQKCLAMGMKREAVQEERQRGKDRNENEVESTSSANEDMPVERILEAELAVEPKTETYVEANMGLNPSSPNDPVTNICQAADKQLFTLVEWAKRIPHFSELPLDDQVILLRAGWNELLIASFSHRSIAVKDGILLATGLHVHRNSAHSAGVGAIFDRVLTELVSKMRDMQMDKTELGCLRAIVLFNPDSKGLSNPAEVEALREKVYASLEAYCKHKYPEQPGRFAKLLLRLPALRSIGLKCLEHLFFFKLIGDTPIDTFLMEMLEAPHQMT
Assay: Co-transfection assay (LXRE luciferase reporter), LXRβ
Assay type: cell-based
Set-up: % Efficacy: concentration or dose not given beside the values
Details: for EC50: CV-1 cells transfected with pCMX-hLXRβ and LXREx1-Tk-Luciferase, 20 hours incubation; for Emax: read-out: % Efficacy
In short: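 CV-1 cells transiently co-transfected with full-length human LXRβ (or LXRα), LXREx1-Tk-luciferase reporter and β-galactosidase control; compound added (10 μM final in single-point, 11-point ½-log curves, ≤0.5% DMSO) for 20 h at 37 °C. Luciferase read; EC50 from four-parameter fit, efficacy relative to reference agonist high control.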

[1] = LXRβ co-transfection, relative to high control 1-(2,4-difluorobenzyl)-2-oxo-6-(4-phenoxyphenyl)-4-(trifluoromethyl)-1,2-dihydropyridine-3-carbonitrile

SMILES | EC50 [nM] | Emax [1] [%] | % Efficacy [1] [%]
Cc1nc(C(F)(F)F)cn1-c1ccc(-c2cc(F)cc(S(C)(=O)=O)c2)cc1-n1nncc1-c1ccc(OC(F)(F)F)cc1 [Example 91, 1-{3′-fluoro-5′-(methylsulfonyl)-4-[2-methyl-4-(trifluoromethyl)-1H-imidazol-1-yl]biphenyl-3-yl}-5-{4-[(trifluoromethyl)oxy]phenyl}-1H-1,2,3-triazole] | 484 | 109 | –
CCS(=O)(=O)c1cc(-c2ccc(-n3cc(C(F)(F)F)nc3C)c(-n3nncc3-c3ccc(OC(F)(F)F)cc3)c2)cc(F)c1CO [Example 92, [3-(ethylsulfonyl)-5-fluoro-4′-[2-methyl-4-(trifluoromethyl)-1H-imidazol-1-yl]-3′-(5-{4-[(trifluoromethyl)oxy]phenyl}-1H-1,2,3-triazol-1-yl)biphenyl-4-yl]methanol] | 502 | 93 | –
Cc1nc(-c2cc(-c3cc(F)c(CO)c(S(C)(=O)=O)c3)ccc2-n2cc(Cl)nc2C)c(-c2ccc3c(c2)OC(F)(F)O3)o1 [Example 424, (4′-(4-chloro-2-methyl-1H-imidazol-1-yl)-3′-(5-(2,2-difluorobenzo[d][1,3]dioxol-5-yl)-2-methyloxazol-4-yl)-3-fluoro-5-(methylsulfonyl)biphenyl-4-yl)methanol] | 46 | 59 | –
Cc1nc(C(F)(F)F)cn1-c1ccc(-c2cc(F)c(CO)c(S(C)(=O)=O)c2)cc1-c1ocnc1-c1ccc(OC(F)(F)F)cc1 [Example 359, [3-fluoro-5-(methylsulfonyl)-4′-[2-methyl-4-(trifluoromethyl)-1H-imidazol-1-yl]-3′-(4-{4-[(trifluoromethyl)oxy]phenyl}-1,3-oxazol-5-yl)biphenyl-4-yl]methanol] | 138 | 91 | –
Cc1nc(-c2cc(-c3cccc(S(C)(=O)=O)c3)ccc2-n2cc(C(C)O)nc2C)c(-c2ccc3c(c2)OC(F)(F)O3)o1 (single isomer, unassigned) [Example 372, 1-(1-(3-(5-(2,2-difluorobenzo[d][1,3]dioxol-5-yl)-2-methyloxazol-4-yl)-3′-(methylsulfonyl)-[1,1′-biphenyl]-4-yl)-2-methyl-1H-imidazol-4-yl) ethanol] | 838 | – | 33
Cc1nc(C(F)F)cn1-c1ccc(-c2cc(Cl)c(CO)c(S(C)(=O)=O)c2)cc1-n1nncc1-c1ccc(OC(F)(F)F)cc1 [Example 158, {3-chloro-4′-[4-(difluoromethyl)-2-methyl-1H-imidazol-1-yl]-5-(methylsulfonyl)-3′-(5-{4-[(trifluoromethyl)oxy]phenyl}-1H-1,2,3-triazol-1-yl)biphenyl-4-yl}methanol] | 1410 | 88 | –
Cc1nc(C(F)F)cn1-c1ccc(-c2cccc(S(C)(=O)=O)c2)cc1-n1nncc1-c1ccc(Cl)cc1Cl [Example 163, 5-(2,4-dichlorophenyl)-1-{4-[4-(difluoromethyl)-2-methyl-1H-imidazol-1-yl]-3′-(methylsulfonyl)biphenyl-3-yl}-1H-1,2,3-triazole] | 1600 | 61 | –
Cc1nc(Cl)cn1-c1ccc(-c2cccc(S(C)(=O)=O)c2)cc1-n1nncc1-c1ccc(Cl)cc1 [Example 150, 1-[4-(4-chloro-2-methyl-1H-imidazol-1-yl)-3′-(methylsulfonyl)biphenyl-3-yl]-5-(4-chlorophenyl)-1H-1,2,3-triazole] | 1290 | 56 | –
Cc1nc(-c2cc(-c3cccc(S(C)(=O)=O)c3)ccc2-n2cc(C(F)(F)F)nc2C)c(-c2ccc3c(c2)OCCO3)o1 [Example 443, 5-(2,3-dihydrobenzo[b][1,4]dioxin-6-yl)-2-methyl-4-(4-(2-methyl-4-(trifluoromethyl)-1H-imidazol-1-yl)-3′-(methylsulfonyl)biphenyl-3-yl)oxazole] | 234 | 75 | –
Cc1ccc(C(C)c2cnnn2-c2cc(-c3cccc(S(C)(=O)=O)c3)ccc2-n2cc(C(F)(F)F)nc2C)cc1 (centres unmarked) [Example 111, 5-[1-(4-methylphenyl)ethyl]-1-{3′-(methylsulfonyl)-4-[2-methyl-4-(trifluoromethyl)-1H-imidazol-1-yl]biphenyl-3-yl}-1H-1,2,3-triazole] | 930 | 92 | –
Cc1nc(C(F)F)cn1-c1ccc(-c2cccc(S(C)(=O)=O)c2)cc1-n1nncc1-c1ccc2c(c1)OC(F)(F)O2 [Example 167, 5-(2,2-difluoro-1,3-benzodioxol-5-yl)-1-{4-[4-(difluoromethyl)-2-methyl-1H-imidazol-1-yl]-3′-(methylsulfonyl)biphenyl-3-yl}-1H-1,2,3-triazole] | 779 | 107 | –
Cc1nc(C(F)F)c(C)n1-c1ccc(-c2cc(F)c(CO)c(S(C)(=O)=O)c2)cc1-n1nncc1-c1ccc(OC(F)(F)F)cc1 [Example 233, (4′-(4-(difluoromethyl)-2,5-dimethyl-1H-imidazol-1-yl)-3-fluoro-5-(methylsulfonyl)-3′-(5-(4-(trifluoromethoxy)phenyl)-1H-1,2,3-triazol-1-yl)-[1,1′-biphenyl]-4-yl)methanol] | 1340 | 92 | –
Cc1nc(C(=O)C(C)C)cn1-c1ccc(-c2cccc(S(C)(=O)=O)c2)cc1-n1nncc1-c1ccc(OC(F)(F)F)cc1 [Example 234, 2-methyl-1-(2-methyl-1-(3′-(methylsulfonyl)-3-(5-(4-(trifluoromethoxy)phenyl)-1H-1,2,3-triazol-1-yl)-[1,1′-biphenyl]-4-yl)-1H-imidazol-4-yl)propan-1-one] | 1200 | 75 | –
Cc1nc(-c2cc(-c3ccc(CO)c(S(C)(=O)=O)c3)ccc2-n2cc(C(F)(F)F)nc2C)c(-c2ccc(F)c(F)c2)o1 [Example 512, (3′-(5-(3,4-difluorophenyl)-2-methyloxazol-4-yl)-4′-(2-methyl-4-(trifluoromethyl)-1H-imidazol-1-yl)-3-(methylsulfonyl)biphenyl-4-yl)methanol] | 136 | 71 | –
CCC(F)(F)c1cn(-c2ccc(-c3cccc(S(N)(=O)=O)c3)cc2-n2nncc2-c2ccc(OC(F)(F)F)cc2)c(C)n1 [Example 183, 4′-[4-(1,1-difluoropropyl)-2-methyl-1H-imidazol-1-yl]-3′-(5-{4-[(trifluoromethyl)oxy]phenyl}-1H-1,2,3-triazol-1-yl)biphenyl-3-sulfonamide] | 1480 | 74 | –
Cc1nc(C(F)(F)F)cn1-c1ccc(-c2cc(F)c(CO)c(S(C)(=O)=O)c2)cc1-n1nncc1-c1ccc2occc2c1 [Example 216, (3′-(5-(benzofuran-5-yl)-1H-1,2,3-triazol-1-yl)-3-fluoro-4′-(2-methyl-4-(trifluoromethyl)-1H-imidazol-1-yl)-5-(methylsulfonyl)-[1,1′-biphenyl]-4-yl)methanol] | 286 | 91 | –
Cc1nc(-c2cc(-c3ccc(C)c(S(C)(=O)=O)c3)ccc2-n2cc(C(F)(F)F)nc2C)c(-c2ccc(C(F)(F)F)nc2Cl)o1 [Example 476, 5-(2-chloro-6-(trifluoromethyl)pyridin-3-yl)-2-methyl-4-(4′-methyl-4-(2-methyl-4-(trifluoromethyl)-1H-imidazol-1-yl)-3′-(methylsulfonyl)biphenyl-3-yl)oxazole] | 726 | 39 | –
Cc1nc(C(C)(F)F)cn1-c1ccc(-c2cccc(S(C)(=O)=O)c2)cc1-n1nncc1-c1ccc(Cl)cc1 [Example 176, 5-(4-chlorophenyl)-1-{4-[4-(1,1-difluoroethyl)-2-methyl-1H-imidazol-1-yl]-3′-(methylsulfonyl)biphenyl-3-yl}-1H-1,2,3-triazole] | 792 | 68 | –
Cc1nc(C(F)(F)F)cn1-c1ccc(-c2cc(F)c(CCO)c(S(C)(=O)=O)c2)cc1-n1nncc1-c1ccc(OC(F)(F)F)cc1 [Example 237, 2-(3-fluoro-4′-(2-methyl-4-(trifluoromethyl)-1H-imidazol-1-yl)-5-(methylsulfonyl)-3′-(5-(4-(trifluoromethoxy)phenyl)-1H-1,2,3-triazol-1-yl)-[1,1′-biphenyl]-4-yl)ethanol] | 192 | 98 | –
